These results are taken from PubChem BioAssay (NCI).

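Exposure lasted 48 hours, with cells grown in 96-well plates and compounds tested at five concentrations. GI50 = concentration required for 50% inhibition of growth. TGI denotes the concentration required for complete inhibition of growth.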

What all share (test): growth of human tumour cells (NCI), 48 h
Assay [1] deals with OVCAR-4 ovarian.
Assay [2] deals with A498 renal.
Assay [3] relates to OVCAR-8 ovarian.
In assay [4] the test system is COLO 205 colon.
The test system of assay [5] is MOLT-4 leukemia.
Assay [6] deals with MDA-MB-231 breast.
Assay [7] deals with OVCAR-3 ovarian.
Assay [8] has as its system SW-620 colon.
Assay [9] relates to ACHN renal.
For assay [10], the system named is IGROV1 ovarian.

For `COc1cc(C2C(C#N)=C(N)Oc3cc4c(cc32)OCO4)cc2c1OCO2` (centres undefined), the GI50 is 931 nM in [1]; 103 nM in [2]; 466 nM in assay [3]; 308 nM in [4]; 935 nM in assay [5]; 774 nM in assay [6]. Moreover, the GI50 is 92.8 nM in assay [7], 276 nM in assay [8], 2300 nM in assay [9] and 724 nM in assay [10]. Moreover, the TGI in [1] is more than 100000 nM; in assay [3] it was more than 100000 nM; in [4], 1020 nM; in [5] it was 49500 nM; in assay [6] it was more than 100000 nM; in assay [7], 350 nM. The TGI in assay [8], in [9] and in assay [10] was more than 100000 nM in each case.
Regarding `C[C@@H](Oc1cc(-c2cnn(C3CC4(CCCNC4)C3)c2)cnc1N)c1c(Cl)ccc(F)c1Cl` (some centres undefined), the GI50 in assay [1] was 1850 nM; in assay [2], 532 nM; in assay [3], 2060 nM; in assay [4], 384 nM; in [5], 1220 nM; in assay [6], 1290 nM. Also, the GI50 in assay [7] was 2020 nM; in assay [8], 597 nM; in [9], 1570 nM; in assay [10] it was 2990 nM. Besides, the TGI is 5560 nM in [1]; 2530 nM in assay [2]; 5930 nM in assay [3]; 1500 nM in assay [4]; 5460 nM in [5]; 3110 nM in assay [6]. The TGI came to 5080 nM in [7], 2360 nM in assay [8], 4490 nM in [9] and 13600 nM in [10].
On to `CNCCOc1nc2c3cnccc3cc(-c3cc(OC)c(OC)c(OC)c3)c2c2ccncc12`, for which the GI50 in [1] is 161 nM; in [2], 47.8 nM; in assay [3], 41.8 nM; in assay [4], 57.5 nM; in [5], less than 10 nM; in assay [6], 76.5 nM. The GI50 in assay [7] was 90.6 nM; in assay [8] it was 24.3 nM; in [9] it was 15 nM; in assay [10], 28.1 nM. Moreover, the TGI came out at 749 nM in assay [1]; 163 nM in [2]; 466 nM in [3]; 698 nM in assay [4]; 47.8 nM in [5]; 1180 nM in assay [6]. For the same molecule, the TGI in [7] worked out at 464 nM; in [8], 1700 nM; in assay [9] it was 59.8 nM; in assay [10] it was 357 nM.
Take `COc1ccc(C2C3=C(COC3=O)N(CCO)c3cc4c(cc32)OCCO4)cc1OC` (centres undefined): the GI50 is 3670 nM in [1]; 1610 nM in assay [2]; 4460 nM in assay [3]; 1340 nM in [4]; 2850 nM in assay [5]; 6780 nM in assay [6]. Moreover, the GI50 in assay [7] is 1110 nM; in assay [8], 1800 nM; in [9], more than 50000 nM; in assay [10] it was 1910 nM. Also, the TGI in assay [1] is more than 50000 nM; in assay [2], more than 15600 nM; in [3] it was more than 50000 nM; in assay [4], 3620 nM; in [5] it was more than 47400 nM; in assay [6] it was 36500 nM. Moreover, the TGI in assay [7] is 3000 nM; in assay [8] it was more than 50000 nM; in assay [9] it was more than 50000 nM; in [10], 14900 nM.
Regarding `N#Cc1c(Oc2ccc(F)c(NC(=O)Cc3cccc(C(F)(F)F)c3)c2)ccc2nc(NC(=O)C3CC3)sc12`, the GI50 in [1] was 2600 nM; in assay [2] it was 224 nM; in [3], 731 nM; in assay [4], 29.9 nM; in assay [5], 673 nM; in assay [6], 422 nM. In addition, the GI50 in assay [7] is 2300 nM; in assay [8], 585 nM; in assay [9] it was 801 nM; in assay [10], 940 nM. Also, the TGI is more than 100000 nM in assay [1]; 2560 nM in assay [2]; more than 100000 nM in [3]; 2630 nM in [4]; more than 100000 nM in assay [5]; 6260 nM in [6]. Further, the TGI in assay [7] is more than 100000 nM; in [8], more than 100000 nM; in [9], more than 100000 nM; in assay [10], more than 44700 nM.
With `C=C=[CH][Sn]([c]1ccccc1)([c]1ccccc1)[c]1ccccc1`, the GI50 in assay [1] is 1470 nM; in [2], 1240 nM; in assay [3] it was 1850 nM; in [4], 1520 nM; in assay [5], 1140 nM; in [6], 1790 nM. In addition, the GI50 is 1540 nM in assay [7], 821 nM in [8], 1660 nM in assay [9] and 1630 nM in [10]. Moreover, the TGI in assay [1] was found to be 3380 nM; in assay [2], 2560 nM; in assay [3] it was 3680 nM; in assay [4], 2870 nM; in assay [5], 6490 nM; in [6], 3360 nM. Besides, the TGI stood at 4610 nM in [7], 2170 nM in assay [8], 3160 nM in assay [9] and 4470 nM in assay [10].
In the case of `CC(C)N(C[C@H]1O[C@@H](n2cnc3c(N)ncnc32)[C@H](O)[C@@H]1O)C1CC(CCc2nc3ccc(C(C)(C)C)cc3[nH]2)C1` (some centres undefined), the GI50 in [1] is 74100 nM; in assay [2] it was 29600 nM; in [3], more than 100000 nM; in [4], 38500 nM; in assay [5], 30900 nM; in assay [6] it was 69800 nM. Further, the GI50 is more than 100000 nM in assay [7], more than 100000 nM in assay [8], more than 100000 nM in assay [9] and more than 72400 nM in assay [10]. In addition, the TGI was more than 100000 nM in assay [1]; more than 100000 nM in assay [2]; more than 100000 nM in [3]; more than 100000 nM in assay [4]; more than 81300 nM in [5]; more than 100000 nM in assay [6]. Besides, the TGI in assay [7], in assay [8], in assay [9] and in assay [10] was more than 100000 nM throughout.
